The values below come from patent US20080194653A1, “Therapeutic Agent For Solid Tumor” (KYOWA HAKKO KOGYO CO., LTD., priority 2005, published 2008).

The test system of series [1] is human colon cancer HCT 116 cells. Kind of series: Cell growth inhibition test against colon cancer cells (XTT). The series is classed as cell-based. The following applies: read-out: GI50 value (concentration of 50% growth inhibition), 72 hours. The procedure:
(§1) As cancer cell lines, human lung cancer A549 cells (ATCC No. CCL-185), human ovarian cancer SK-OV-3 cells (ATCC No. HTB-77), and human colon cancer HCT 116 cells (ATCC No. CCL-247) were used. For the culture of A549 cells, Nutrient Mixture F-12K medium (Invitrogen, catalog No. 21127-022) containing 10% fetal bovine serum (Invitrogen, catalog No. 10099-141), 100 units/mL penicillin (Invitrogen, catalog No. 15140-122), and 100 μg/mL streptomycin (Invitrogen, catalog No. 15140-122) was used. For the culture of SK-OV-3 cells and HCT 116 cells, McCoy's 5A medium (Invitrogen, catalog No. 16600-082) containing 10% fetal bovine serum (Invitrogen, catalog No. 10099-141), 100 units/mL penicillin (Invitrogen, catalog No. 15140-122), and 100 μg/mL streptomycin (Invitrogen, catalog No. 15140-122) was used. The cells were cultured at 37° C. in a 5% carbon dioxide atmosphere.
(§2) A549 cells (1000 cells/well), SK-OV-3 cells (2000 cells/well), or HCT 116 cells (1000 cells/well) were seeded in each well of 96-well plates (Nunc, catalog No. 167008), and cultured overnight. Test compounds diluted stepwise were added, and the cells were further cultured for 72 hours (final volume: 100 μL/well). Fifty μL XTT labeling mixture of Cell Proliferation Kit II (XTT) (Roche Diagnostics, catalog No. 1465015) was added to each well, and the plates were incubated at 37° C. After 1 to 3 hours, absorbance at 490 nm (reference wavelength: 655 nm) was measured with a plate reader (Molecular Device, SpectraMax 340PC^384). Growth ratios of the cells in the wells treated with the test compounds were calculated based on the growth ratio of the cells in the control well treated with solvent (dimethyl sulfoxide (DMSO)) for 72 hours, which was defined as 100%.

In series [2] the test system is human lung cancer A549 cells. Put plainly: Cell growth inhibition test against lung cancer cells (XTT). The following applies: read-out: GI50 value (concentration of 50% growth inhibition), 72 hours. It counts as cell-based. As for the experimental part: as §1, §2
For orientation: Tetrazolium assays rely on reduction of a dye to a coloured formazan, in cell work by metabolically active cells.

Series [3] has as its system human ovarian cancer SK-OV-3 cells. Put plainly: Cell growth inhibition test against ovarian cancer cells (XTT). The series is classed as cell-based. The following applies: read-out: GI50 value (concentration of 50% growth inhibition), 72 hours. The procedure:
as §1, §2

Series [4] relates to human pancreatic cancer MIA PaCa-2 cells. Kind of series: Cell growth inhibition test against pancreatic cancer cells (XTT). It counts as cell-based. The following applies: read-out: GI50 value (concentration of 50% growth inhibition). The procedure: as §2
(§3) As cancer cell lines, human pancreatic cancer MIA PaCa-2 cells (JCRB No. 0070), human cervical cancer HeLa cells (ATCC No. CCL-2), human breast cancer MDA-MB-468 cells (ATCC No. HTB-132), human prostate cancer DU 145 cells (ATCC No. HTB-81), human skin cancer SK-MEL-28 cells (ATCC No. HTB-72), human head and neck cancer KB cells (JCRB No. 9027), human renal cancer 786-0 cells (ATCC No. CRL-1932), and human liver cancer Hep G2 cells (ATCC No. HB-8065) were used. The cells were cultured at 37° C. in a 5% carbon dioxide atmosphere (except for the human breast cancer MDA-MB-468 cells, which were cultured under the condition at 37° C.) by using the mediums mentioned below, respectively.
(§4) In the same manner as that in Test Example 1, the cells were seeded (500 to 4000 cells/well, respectively) in each well of 96-well plates (Nunc, catalog No. 167008), and growth ratios of the cells treated with test compounds were calculated. The measurement of absorbance was performed at 1.5 to 3 hours after the addition of the XTT labeling mixture.

Series [5] deals with human cervical cancer HeLa cells. Kind of series: Cell growth inhibition test against cervical cancer cells (XTT). It counts as cell-based. The conditions noted are these: read-out: GI50 value (concentration of 50% growth inhibition). As for the experimental part:
as §2, §3, §4

Series [6] deals with human breast cancer MDA-MB-468 cells. Put plainly: Cell growth inhibition test against breast cancer cells (XTT). The conditions noted are these: read-out: GI50 value (concentration of 50% growth inhibition). The series is classed as cell-based. As for the experimental part: as §2, §3, §4
For series [7], the system named is human prostate cancer DU 145 cells. Kind of series: Cell growth inhibition test against prostate cancer cells (XTT). It counts as cell-based. The following applies: read-out: GI50 value (concentration of 50% growth inhibition). As for the experimental part: as §2, §3, §4
Series [8] deals with human skin cancer SK-MEL-28 cells. Kind of series: Cell growth inhibition test against skin cancer cells (XTT). It counts as cell-based. The following applies: read-out: GI50 value (concentration of 50% growth inhibition). As for the experimental part:
as §2, §3, §4

The test system of series [9] is human head and neck cancer KB cells. Kind of series: Cell growth inhibition test against head and neck cancer cells (XTT). The conditions noted are these: read-out: GI50 value (concentration of 50% growth inhibition). It counts as cell-based. The procedure:
as §2, §3, §4

Series [10] relates to human renal cancer 786-0 cells. Kind of series: Cell growth inhibition test against renal cancer cells (XTT). The series is classed as cell-based. The conditions noted are these: read-out: GI50 value (concentration of 50% growth inhibition). The procedure: as §2, §3, §4
Series [11] has as its system human liver cancer Hep G2 cells. Put plainly: Cell growth inhibition test against liver cancer cells (XTT). The following applies: HepG2, read-out: GI50 value (concentration of 50% growth inhibition). It counts as cell-based. As for the experimental part: as §2, §3, §4
Series [12] addresses T1, recombinant human Eg5 motor domain protein (Homo sapiens, UniProt P52732).
T1 construct: A plasmid expressing the motor domain of human Eg5 was constructed; made in house; host or cells: Escherichia coli BL21 (DE3)
T1 sequence (P52732 18-359 limits assumed): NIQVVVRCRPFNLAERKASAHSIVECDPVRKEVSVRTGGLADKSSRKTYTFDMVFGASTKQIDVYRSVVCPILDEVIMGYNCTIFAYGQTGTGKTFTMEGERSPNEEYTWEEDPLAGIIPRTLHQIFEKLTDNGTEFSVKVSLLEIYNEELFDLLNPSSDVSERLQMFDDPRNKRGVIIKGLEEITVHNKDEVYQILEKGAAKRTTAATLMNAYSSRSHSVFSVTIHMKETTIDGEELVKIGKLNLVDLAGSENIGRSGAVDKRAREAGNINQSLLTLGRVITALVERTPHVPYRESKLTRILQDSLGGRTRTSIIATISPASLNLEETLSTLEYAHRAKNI
Kind of series: Eg5 enzyme inhibition test (ATPase activity). It counts as biochemical. The procedure:
A recombinant human Eg5 motor domain protein was prepared by referring to the literature [Biochemistry, Vol. 35, p. […] A plasmid expressing the motor domain of human Eg5 was constructed, and transformed into Escherichia coli BL21 (DE3). The transformant was cultured at 25° C., and when the OD600 reached 0.74, isopropyl-β-D-thiogalactoside was added at a final concentration of 0.5 mmol/L. The transformant was further cultured for 4 hours, and then the culture medium was centrifuged to collect the cells. The cells were suspended in a buffer and ultrasonicated, and then the sonicated solution was centrifuged to recover the supernatant. The supernatant was purified by cation exchange column chromatography to obtain a partially purified sample. Furthermore, the partially purified sample was purified by gel filtration column chromatography to obtain a finally purified sample.
Measurement of the ATPase activity of Eg5 was carried out by referring to the literatures [EMBO Journal, Vol. 13, p. […] Solution A was dispensed into each well of a 96-well plate as 45 μL portions. Solution B was used to serially dilute a test compound. The diluted test compound solutions in a volume of 30 μL were mixed with Solution A added beforehand in each well of the 96-well plate to start the enzymatic reaction. The enzymatic reaction was performed at 30° C. for 30 minutes. […] The relative activity was calculated to calculate IC50 value.

As for `CCC(=O)N1N=C(N2CCCC2=O)SC1(CCNS(C)(=O)=O)c1ccccc1` (single isomer, unassigned; (-)) [Compound e, (−)-N-{2-[5-(2-Oxopyrrolidin-1-yl)-2-phenyl-3-propionyl-2,3-dihydro-1,3,4-thiadiazol-2-yl]ethyl}methanesulfonamide], the melting point (in general, the temperature of the solid-liquid transition) fell in the range of 188 to 191 °C. Further, the GI50 in series [1] is below 0.1 µM. The GI50 in series [2] is below 10 µM. The GI50 in [3] was below 10 µM. Also, the GI50 in series [4] was below 10 µM. The GI50 in series [5] is below 10 µM. In addition, in [6], the GI50 was below 10 µM. The GI50 in [7] is below 10 µM. In series [8], the GI50 is below 10 µM. In series [9], the GI50 was below 10 µM. In addition, the GI50 in series [10] is below 10 µM. In addition, the GI50 in [11] was below 10 µM. In addition, the “Inhibition of the ATPase activity of Eg5 (in words)” value in [12] is given as “inhibited the ATPase activity of Eg5 in a concentration-dependent manner”. Also, the IC50 in series [12] (30° C., 30 minutes, absorbance at 360 nm, read-out: Inhibition ratios (IC50) on the ATPase activity of Eg5) is below 0.1 µM.
